In experiment [1] the target is T1, EIF2AK3 (PERK) catalytic domain (amino acids 536-1116) (Homo sapiens, UniProt Q9NZJ5).
T1 construct: EIF2AK3 (PERK) catalytic domain (amino acids 536-1116)
T1 sequence (Q9NZJ5 536-1116): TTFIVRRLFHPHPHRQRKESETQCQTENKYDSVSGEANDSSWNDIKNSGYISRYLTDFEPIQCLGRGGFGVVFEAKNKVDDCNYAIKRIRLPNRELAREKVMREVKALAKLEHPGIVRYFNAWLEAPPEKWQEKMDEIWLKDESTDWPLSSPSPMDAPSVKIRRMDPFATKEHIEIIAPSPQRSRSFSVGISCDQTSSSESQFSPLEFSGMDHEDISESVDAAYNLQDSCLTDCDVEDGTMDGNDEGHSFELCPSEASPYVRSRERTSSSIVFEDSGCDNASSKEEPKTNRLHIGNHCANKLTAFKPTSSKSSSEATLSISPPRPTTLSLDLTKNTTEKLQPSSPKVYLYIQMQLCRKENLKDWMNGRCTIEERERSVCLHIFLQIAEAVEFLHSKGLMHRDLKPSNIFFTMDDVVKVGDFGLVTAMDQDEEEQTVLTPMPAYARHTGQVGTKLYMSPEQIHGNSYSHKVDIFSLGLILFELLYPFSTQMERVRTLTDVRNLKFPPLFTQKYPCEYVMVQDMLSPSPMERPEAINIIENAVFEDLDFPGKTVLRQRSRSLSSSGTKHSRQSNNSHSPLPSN
As to the kind of experiment: PERK in vitro activity assay (isolated), TR-FRET kinase assay. Format: biochemical. To be noted: isolated PERK enzyme, 1.5 μM ATP; read-out: Biochemical IC50. Put shortly: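 Human PERK catalytic domain (aa 536-1116) phosphorylating 100-200 nM GFP-eIF2a in 50 mM HEPES pH 7.5, 10 mM MgCl2, 1 mM EGTA, 0.01% Brij-35; enzyme-started, 45 min at room temperature. Stopped with 10 mM EDTA, 2 nM Tb-anti-phospho-eIF2a added for 90 min; IC50 from TR-FRET ratios by 4-parameter logistic fit.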

Experiment [2] concerns GFP-eIF2α in HEK293 cells. The experiment in a line: PERK cellular assay, TR-FRET in HEK293-EGFP-eIF2a cells after tunicamycin-induced ER stress. As to conditions: HEK293-EGFP-eIF2a cells, tunicamycin 2 hours, read-out: Cellular eIF2α IC50. Format: cell-based. Put shortly: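 HEK293 cells stably expressing GFP-eIF2α, plated 5000 cells/well overnight, pretreated with inhibitors 30 min at 37 °C, then ER stress induced with tunicamycin […] for 2 h.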

Where two headings read alike, the source gives them in different places.

For `Cc1nc(N)c2c(-c3ccc(NC(=O)C(O)c4cccc(C(F)(F)F)c4)cc3Cl)cn(C)c2n1` (stereo not shown) [Example 102, N-(4-(4-amino-2,7-dimethyl-7H-pyrrolo[2,3-d]pyrimidin-5-yl)-3-chlorophenyl)-2-hydroxy-2-(3-(trifluoromethyl)phenyl)acetamide], the IC50 in experiment [1] and in experiment [2] was 101 to 250 nM in each case.

Regarding `Cc1cc(F)cc(C(O)C(=O)Nc2ccc(-c3cn(C)c4nc(C)nc(N)c34)c(C)c2)c1` (stereo not shown) [Example 56, N-(4-(4-amino-2,7-dimethyl-7H-pyrrolo[2,3-d]pyrimidin-5-yl)-3-methylphenyl)-2-(3-fluoro-5-methylphenyl)-2-hydroxyacetamide], the IC50 in experiment [1] and in experiment [2] was 1 to 25 nM throughout.

For the molecule `Cc1cc(NC(=O)CC2CCCC2)ccc1-c1cn(C)c2ncnc(N)c12` [Example 165, N-(4-(4-amino-7-methyl-7H-pyrrolo[2,3-d]pyrimidin-5-yl)-3-methylphenyl)-2-cyclopentyl-acetamide], the IC50 in experiment [1] is 101 to 250 nM; in experiment [2] (Homo sapiens, HEK293, 2 h), 501 to 1000 nM.

In the case of `CCc1cccc(C(O)C(=O)Nc2ccc(-c3cn(C)c4nc(C)nc(N)c34)c(C)c2)c1` (stereo not shown) [Example 44, N-(4-(4-amino-2,7-dimethyl-7H-pyrrolo[2,3-d]pyrimidin-5-yl)-3-methylphenyl)-2-(3-ethylphenyl)-2-hydroxyacetamide], the values for the IC50 in experiment [1] and in experiment [2] were 101 to 250 nM and 1000 to 2000 nM, respectively.

Consider `Cc1nc(N)c2c(-c3ccc(NC(=O)C(O)c4cccc5cnn(C)c45)cc3C)cn(C)c2n1` (single isomer, unassigned) [Example 65, N-(4-(4-amino-2,7-dimethyl-7H-pyrrolo[2,3-d]pyrimidin-5-yl)-3-methylphenyl)-2-hydroxy-2-(1-methyl-1H-indazol-7-yl)acetamide], for which the IC50 lay in the range of 251 to 500 nM in experiment [1] and 3000 to 4000 nM in experiment [2].

As for `Cc1cc(NC(=O)C(O)c2ccccc2F)ccc1-c1cn(C)c2ncnc(N)c12` (stereo not shown) [Example 31, N-(4-(4-amino-7-methyl-7H-pyrrolo[2,3-d]pyrimidin-5-yl)-3-methylphenyl)-2-(2-fluorophenyl)-2-hydroxyacetamide], the IC50 lay in the range of 1 to 25 nM in experiment [1] and 26 to 50 nM in experiment [2] (Homo sapiens, HEK293, 2 h).

On to `Cc1nc(N)c2c(-c3cc(F)c(NC(=O)C(O)c4cccc(F)c4)cc3F)cn(C)c2n1` (stereo not shown) [Example 123, N-(4-(4-amino-2,7-dimethyl-7H-pyrrolo[2,3-d]pyrimidin-5-yl)-2,5-difluorophenyl)-2-(3-fluorophenyl)-2-hydroxyacetamide], for which the IC50 was 1 to 25 nM in experiment [1] and 26 to 50 nM in experiment [2] (Homo sapiens, HEK293, 2 h).

On to `Cc1cc(F)cc(C(O)C(=O)Nc2ccc(-c3cn(C)c4nc(C)nc(N)c34)c(F)c2)c1` (stereo not shown) [Example 86, N-(4-(4-amino-2,7-dimethyl-7H-pyrrolo[2,3-d]pyrimidin-5-yl)-3-fluorophenyl)-2-(3-fluoro-5-methylphenyl)-2-hydroxyacetamide], for which the IC50 in experiment [1] is 1 to 25 nM; in experiment [2], 51 to 100 nM.

For `CCc1cc(F)cc(C(O)C(=O)Nc2ccc(-c3cn(C)c4nc(C)nc(N)c34)c(C)c2)c1` (stereo not shown) [Example 58, N-(4-(4-amino-2,7-dimethyl-7H-pyrrolo[2,3-d]pyrimidin-5-yl)-3-methylphenyl)-2-(3-ethyl-5-fluorophenyl)-2-hydroxyacetamide], the half-maximal inhibitory concentration (IC50) in experiment [1] lay within 1 to 25 nM; in experiment [2], 51 to 100 nM.

`CCc1cc(NC(=O)C(O)c2cccc(F)c2)ccc1-c1cn(C)c2nc(C)nc(N)c12` (stereo not shown) [Example 68, N-(4-(4-amino-2-2,7-dimethyl-7H-pyrrolo[2,3-d]pyrimidin-5-yl)-3-ethylphenyl)-2-(3-fluorophenyl)-2-hydroxyacetamide]: the values for the IC50 in experiment [1] and in experiment [2] were 1 to 25 nM and 26 to 50 nM, respectively.

As to `Cc1nc(N)c2c(-c3ccc(NC(=O)C(O)c4ccccc4Cl)cc3F)cn(C)c2n1` (stereo not shown) [Example 70, N-(4-(4-amino-2,7-dimethyl-7H-pyrrolo[2,3-d]pyrimidin-5-yl)-3-fluorophenyl)-2-(2-chlorophenyl)-2-hydroxyacetamide], the 50% inhibitory concentration (IC50) in experiment [1] is 1000 to 2000 nM; in experiment [2] (Homo sapiens, HEK293, 2 h) it was more than 5000 nM.

With `Cc1nc(N)c2c(-c3ccc(NC(=O)C(O)c4cccc(Cl)c4)cc3F)cn(C)c2n1` (stereo not shown) [Example 81, N-(4-(4-amino-2,7-dimethyl-7H-pyrrolo[2,3-d]pyrimidin-5-yl)-3-fluorophenyl)-2-(3-chlorophenyl)-2-hydroxyacetamide], the results for the IC50 in experiment [1] and in experiment [2] were 51 to 100 nM and 101 to 250 nM, respectively.

For the molecule `Cc1nc(N)c2c(-c3ccc(NC(=O)C(O)c4cccc(F)c4)c(F)c3)cn(C)c2n1` (stereo not shown) [Example 90, N-(4-(4-amino-2,7-dimethyl-7H-pyrrolo[2,3-d]pyrimidin-5-yl)-2-fluorophenyl)-2-(3-fluorophenyl)-2-hydroxyacetamide], the results for the IC50 in experiment [1] and in experiment [2] were 1 to 25 nM and 26 to 50 nM, respectively.

For `Cc1nc(N)c2c(-c3ccc(NC(=O)C(O)c4cccc(F)c4)nc3C)cn(C)c2n1` (stereo not shown) [Example 127, N-(5-(4-amino-2,7-dimethyl-7H-pyrrolo[2,3-d]pyrimidin-5-yl)-6-methylpyridin-2-yl)-2-(3-fluorophenyl)-2-hydroxyacetamide], the IC50 in experiment [1] fell in the range of 1 to 25 nM; in experiment [2] it was 101 to 250 nM.

Consider `Cc1nc(N)c2c(-c3ccc(NC(=O)C(O)c4cccc(F)c4)cc3Cl)cn(C)c2n1` (stereo not shown) [Example 91, N-(4-(4-amino-2,7-dimethyl-7H-pyrrolo[2,3-d]pyrimidin-5-yl)-3-chlorophenyl)-2-(3-fluorophenyl)-2-hydroxyacetamide], for which the IC50 in experiment [1] was 101 to 250 nM; in experiment [2], 501 to 1000 nM.

As to `Cc1nc(N)c2c(-c3ccc(NC(=O)C(O)c4ccccc4Cl)cc3C)cn(C)c2n1` (stereo not shown) [Example 34, N-(4-(4-amino-2,7-dimethyl-7H-pyrrolo[2,3-d]pyrimidin-5-yl)-3-methylphenyl)-2-(2-chlorophenyl)-2-hydroxyacetamide], the IC50 was 101 to 250 nM in experiment [1] and 501 to 1000 nM in experiment [2] (Homo sapiens, HEK293, 2 h).

As to `Cc1cc(NC(=O)C(O)c2cccc(F)c2)ccc1-c1cn(C)c2ncnc(N)c12` (stereo not shown) [Example 10, N-(4-(4-amino-7-methyl-7H-pyrrolo[2,3-d]pyrimidin-5-yl)-3-methylphenyl)-2-(3-fluorophenyl)-2-hydroxyacetamide], the IC50 lay in the range of 1 to 25 nM in experiment [1] and 51 to 100 nM in experiment [2].

`Cc1nc(N)c2c(-c3ccc(NC(=O)C(O)c4cccc(Cl)c4)c(F)c3F)cn(C)c2n1` (stereo not shown) [Example 112, N-(4-(4-amino-2,7-dimethyl-7H-pyrrolo[2,3-d]pyrimidin-5-yl)-2,3-difluorophenyl)-2-(3-chlorophenyl)-2-hydroxyacetamide]: the results for the IC50 in experiment [1] and in experiment [2] were 101 to 250 nM and 501 to 1000 nM, respectively.

For the molecule `Cc1cc(NC(=O)C(O)c2ccccc2C)ccc1-c1cn(C)c2ncnc(N)c12` (stereo not shown) [Example 39, N-(4-(4-amino-7-methyl-7H-pyrrolo[2,3-d]pyrimidin-5-yl)-3-methylphenyl)-2-hydroxy-2-(o-tolyl)acetamide], the IC50 in experiment [1] is 1 to 25 nM; in experiment [2] (Homo sapiens, HEK293, 2 h), 26 to 50 nM.

As to `Cc1cc(NC(=O)Oc2ccccc2)ccc1-c1cn(C)c2ncnc(N)c12` [Example 169, phenyl (4-(4-amino-7-methyl-7H-pyrrolo[2,3-d]pyrimidin-5-yl)-3-methylphenyl)carbamate], the results for the IC50 in experiment [1] and in experiment [2] (Homo sapiens) were 3000 to 4000 nM and more than 5000 nM, respectively.

On to `Cn1cc(-c2ccc(NC(=O)C(O)c3cccc(F)c3)cc2Cl)c2c(N)ncnc21` (stereo not shown) [Example 14, N-(4-(4-amino-7-methyl-7H-pyrrolo[2,3-d]pyrimidin-5-yl)-3-chlorophenyl)-2-(3-fluorophenyl)-2-hydroxyacetamide], for which the IC50 in experiment [1] and in experiment [2] was 1 to 25 nM each time.

Turning to `Cn1cc(-c2ccc(NC(=O)C(O)c3cccc(F)c3)cc2OC(F)(F)F)c2c(N)ncnc21` (stereo not shown) [Example 18, N-(4-(4-amino-7-methyl-7H-pyrrolo[2,3-d]pyrimidin-5-yl)-3-(trifluoromethoxy)phenyl)-2-(3-fluorophenyl)-2-hydroxyacetamide], the IC50 in experiment [1] lay within 1 to 25 nM; in experiment [2] (Homo sapiens, HEK293, 2 h), 101 to 250 nM.

In the case of `Cc1nc(N)c2c(-c3ccc(NC(=O)C(O)c4cccc(Cl)c4)c(F)c3F)cn(C)c2n1` (stereo not shown) [Example 111, N-(4-(4-amino-2,7-dimethyl-7H-pyrrolo[2,3-d]pyrimidin-5-yl)-2,3-difluorophenyl)-2-(3-chlorophenyl)-2-hydroxyacetamide], the half-inhibitory concentration (IC50) in experiment [1] and in experiment [2] was 1 to 25 nM each time.

The record behind these values is patent publication US20220356186A1, “PERK INHIBITING PYRROLOPYRIMIDINE COMPOUNDS” (HiberCell, Inc., priority 2019, published 2022).
